Measurements reported in patent US20240158348A1, “HERBICIDAL CYCLIC AMIDES N-SUBSTITUTED WITH A HALOALKYLSULFONYLANILIDE GROUP” (FMC Corporation, priority 2021, published 2024).

Experiments:
[1] = tested on: horseweed (Erigeron canadensis); experiment: Test C postemergence, horseweed; assay type: in vivo
Summary of the method: (§1)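 Greenhouse pot test. Compounds in a non-phytotoxic solvent with surfactant were applied to a loam–sand soil mix either preemergence as a directed spray or postemergence to plants at the one- to two-leaf stage; 0–100 visual ratings followed after 10 or 12 days.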

[2] = tested on: wheat (Triticum aestivum); experiment: Test C postemergence, wheat; assay type: in vivo
Summary of the method: as §1

[3] = tested on: oat, wild (wild oat, Avena fatua); experiment: Test C preemergence, wild oat; assay type: in vivo; conditions: 0 is no effect, 100 is complete control
Summary of the method: as §1

[4] = tested on: ragweed (common ragweed, Ambrosia artemisiifolia); experiment: Test C preemergence, ragweed; assay type: in vivo; conditions: 0 is no effect, 100 is complete control
Summary of the method: (§2)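 Pre: soil sprayed at seeding. Post: seedlings treated at 1–2 leaves (2–10 cm). Vehicle non-phytotoxic solvent mix with surfactant; loam–sand medium; greenhouse; visual injury read at 10 or 12 days, scale 0–100.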

kochia (Bassia scoparia) [5] = experiment: Test C preemergence, kochia; assay type: in vivo; conditions: 0 is no effect, 100 is complete control
Summary of the method: as §1

[6] = tested on: oat, wild (wild oat, Avena fatua); experiment: Test C postemergence, wild oat; assay type: in vivo
[7] = tested on: ryegrass, Italian (Italian ryegrass, Lolium multiflorum); experiment: Test C preemergence, Italian ryegrass; assay type: in vivo; conditions: 0 is no effect, 100 is complete control
Summary of the method: as §1

[8] = tested on: barnyardgrass (Echinochloa crusgalli); experiment: Test D flooded paddy test, barnyardgrass; assay type: in vivo; parameters: key: 0 = no effect, 100 = complete control; conditions: 250 g ai/ha, Flood; applied to paddy water at 2-leaf stage; visual rating after 13 days; scale 0 (no effect) to 100 (complete control)
Summary of the method: (§3)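 2-leaf plants; flood 3 cm over soil; cpd into paddy water; depth maintained; greenhouse 13 d; visual rating vs controls, 0 = no effect, 100 = complete control; dash = no result.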

soybean (Glycine max) [9] = experiment: Test C postemergence, soybean; assay type: in vivo
kochia (Bassia scoparia) [10] = experiment: Test C postemergence, kochia; assay type: in vivo
Summary of the method: as §1

[11] = tested on: wheat (Triticum aestivum); experiment: Test C preemergence, wheat; assay type: in vivo; conditions: 0 is no effect, 100 is complete control
[12] = tested on: goosegrass (Eleusine indica); experiment: Test C preemergence, goosegrass; assay type: in vivo; conditions: 0 is no effect, 100 is complete control
Summary of the method: as §2

corn (Zea mays) [13] = experiment: Test C postemergence, corn; assay type: in vivo
[14] = tested on: blackgrass (Alopecurus myosuroides); experiment: Test C postemergence, blackgrass; assay type: in vivo; conditions: 31 g ai/ha Postemergence; visual injury, 0 to 100 scale (0 no effect, 100 complete control)
Summary of the method: as §1

soybean (Glycine max) [15] = experiment: Test C preemergence, soybean; assay type: in vivo; conditions: 0 is no effect, 100 is complete control
Summary of the method: as §1

[16] = tested on: pigweed, palmer (palmer amaranth, Amaranthus palmeri); experiment: Test C preemergence, palmer amaranth; assay type: in vivo; conditions: 0 is no effect, 100 is complete control
Summary of the method: as §1

[17] = tested on: foxtail, giant (giant foxtail, Setaria faberi); experiment: Test C preemergence, giant foxtail; assay type: in vivo; conditions: 0 is no effect, 100 is complete control
Summary of the method: as §1

[18] = tested on: goosegrass (Eleusine indica); experiment: Test C postemergence, goosegrass; assay type: in vivo
Summary of the method: as §1

[19] = tested on: ryegrass, Italian (Italian ryegrass, Lolium multiflorum); experiment: Test C postemergence, Italian ryegrass; assay type: in vivo
Summary of the method: as §1

[20] = tested on: sedge, umbrella (small-flower umbrella sedge, Cyperus difformis); experiment: Test D flooded paddy test, umbrella sedge; assay type: in vivo; parameters: key: 0 = no effect, 100 = complete control; conditions: 250 g ai/ha, Flood; applied to paddy water at 2-leaf stage; visual rating after 13 days; scale 0 (no effect) to 100 (complete control)
Summary of the method: as §3

corn (Zea mays) [21] = experiment: Test C preemergence, corn; assay type: in vivo; conditions: 0 is no effect, 100 is complete control
Summary of the method: as §2

[22] = tested on: foxtail, giant (giant foxtail, Setaria faberi); experiment: Test C postemergence, giant foxtail; assay type: in vivo
rice (Oryza sativa) = experiment: Test D flooded paddy test, rice; assay type: in vivo; parameters: key: 0 = no effect, 100 = complete control; conditions: 250 g ai/ha, Flood; applied to paddy water at 2-leaf stage; visual rating after 13 days; scale 0 (no effect) to 100 (complete control)
Summary of the method: as §3

[23] = tested on: ragweed (common ragweed, Ambrosia artemisiifolia); experiment: Test C postemergence, ragweed; assay type: in vivo
Summary of the method: as §1

[24] = tested on: ducksalad (Heteranthera limosa); experiment: Test D flooded paddy test, ducksalad; assay type: in vivo; parameters: key: 0 = no effect, 100 = complete control; conditions: 250 g ai/ha, Flood; applied to paddy water at 2-leaf stage; visual rating after 13 days; scale 0 (no effect) to 100 (complete control)
Summary of the method: as §3

[25] = tested on: galium (catchweed bedstraw, Galium aparine); experiment: Test C postemergence, galium; assay type: in vivo
[26] = tested on: pigweed, palmer (palmer amaranth, Amaranthus palmeri); experiment: Test C postemergence, palmer amaranth; assay type: in vivo
Summary of the method: as §1

[27] = tested on: blackgrass (Alopecurus myosuroides); experiment: Test C postemergence, blackgrass; assay type: in vivo; conditions: 125 g ai/ha Postemergence; 0 is no effect, 100 is complete control
[28] = 31 g ai/ha Postemergence, visual injury, 0 to 100 scale (0 no effect, 100 complete control)
[29] = 125 g ai/ha Postemergence, 0 is no effect, 100 is complete control

SMILES: CO/N=C1\CCN(c2cc(NS(=O)(=O)C(F)(F)F)c(C)cc2C)C1=O [Compound 9, 1,1,1-trifluoro-N-[5-[3-(methoxyimino)-2-oxo-1-pyrrolidinyl]-2,4-dimethylphenyl]methanesulfonamide]
- Horseweed plant response rating [1, 28]: 100
- Plant response rating (0 to 100 scale), Horseweed [1, 29]: 100
- Wheat plant response rating [2, 28]: 80
- Plant response rating (0 to 100 scale), Wheat [2, 29]: 80
- Plant response rating (0 to 100 scale), Oat, Wild ([3]; 31 g ai/ha Preemergence): 90
- Plant response rating (0 to 100 scale), Oat, Wild ([3]; 125 g ai/ha Preemergence): 100
- Plant response rating (0 to 100 scale), Ragweed ([4]; 31 g ai/ha Preemergence): 50
- Plant response rating (0 to 100 scale), Ragweed ([4]; 125 g ai/ha Preemergence): 90
- Plant response rating (0 to 100 scale), Kochia (kochia (Bassia scoparia) [5]; 31 g ai/ha Preemergence): 100
- Plant response rating (0 to 100 scale), Kochia (kochia (Bassia scoparia) [5]; 125 g ai/ha Preemergence): 100
- Oat, Wild plant response rating [6, 28]: 80
- Plant response rating (0 to 100 scale), Oat, Wild [6, 29]: 80
- Plant response rating (0 to 100 scale), Ryegrass, Italian ([7]; 31 g ai/ha Preemergence): 60
- Plant response rating (0 to 100 scale), Ryegrass, Italian ([7]; 125 g ai/ha Preemergence): 100
- Plant response rating, Barnyardgrass [8]: 10
- Soybean plant response rating (soybean (Glycine max) [9]; [28]): 80
- Plant response rating (0 to 100 scale), Soybean (soybean (Glycine max) [9]; [29]): 80
- Kochia plant response rating (kochia (Bassia scoparia) [10]; [28]): 80
- Plant response rating (0 to 100 scale), Kochia (kochia (Bassia scoparia) [10]; [29]): 90
- Plant response rating (0 to 100 scale), Wheat ([11]; 31 g ai/ha Preemergence): 90
- Plant response rating (0 to 100 scale), Wheat ([11]; 125 g ai/ha Preemergence): 100
- Plant response rating (0 to 100 scale), Goosegrass ([12]; 31 g ai/ha Preemergence): 100
- Plant response rating (0 to 100 scale), Goosegrass ([12]; 125 g ai/ha Preemergence): 100
- Corn plant response rating (corn (Zea mays) [13]; [28]): 90
- Plant response rating (0 to 100 scale), Corn (corn (Zea mays) [13]; [29]): 90
- Blackgrass plant response rating [14]: 80
- Plant response rating (0 to 100 scale), Soybean (soybean (Glycine max) [15]; 31 g ai/ha Preemergence): 80
- Plant response rating (0 to 100 scale), Soybean (soybean (Glycine max) [15]; 125 g ai/ha Preemergence): 100
- Plant response rating (0 to 100 scale), Pigweed, Palmer ([16]; 31 g ai/ha Preemergence): 100
- Plant response rating (0 to 100 scale), Pigweed, Palmer ([16]; 125 g ai/ha Preemergence): 100
- Plant response rating (0 to 100 scale), Foxtail, Giant ([17]; 31 g ai/ha Preemergence): 100
- Plant response rating (0 to 100 scale), Foxtail, Giant ([17]; 125 g ai/ha Preemergence): 100
- Goosegrass plant response rating [18, 28]: 90
- Plant response rating (0 to 100 scale), Goosegrass [18, 29]: 90
- Ryegrass, Italian plant response rating [19, 28]: 50
- Plant response rating (0 to 100 scale), Ryegrass, Italian [19, 29]: 80
- Plant response rating, Sedge, Umbrella [20]: 85
- Plant response rating (0 to 100 scale), Corn (corn (Zea mays) [21]; 31 g ai/ha Preemergence): 50
- Plant response rating (0 to 100 scale), Corn (corn (Zea mays) [21]; 125 g ai/ha Preemergence): 100
- Foxtail, Giant plant response rating [22, 28]: 40
- Plant response rating (0 to 100 scale), Foxtail, Giant [22, 29]: 90
- Plant response rating, Rice (rice (Oryza sativa)): 30
- Ragweed plant response rating [23, 28]: 70
- Plant response rating (0 to 100 scale), Ragweed [23, 29]: 80
- Plant response rating, Ducksalad [24]: 95
- melting point: 226 to 229 °C
- Galium plant response rating [25, 28]: 90
- Plant response rating (0 to 100 scale), Galium [25, 29]: 100
- Pigweed, Palmer plant response rating [26, 28]: 70
- Plant response rating (0 to 100 scale), Pigweed, Palmer [26, 29]: 90
- Plant response rating (0 to 100 scale), Blackgrass [27]: 90
